Test results from ChEMBL document CHEMBL2069260, “Synthesis and evaluation of novel 2-pyridone derivatives as inhibitors of phosphodiesterase3 (PDE3): a target for heart failure and platelet aggregation” (Bioorg Med Chem Lett, 2012).

What was measured:
Type in all cases: protein assay
Phosphodiesterase 3 [1] = target: T1, Phosphodiesterase 3 (Homo sapiens, UniProt Q14432+Q13370); test: Inhibition of PDE3 at 500 uM by Biomol Green quantizyme assay system
Phosphodiesterase 3 [2] = target: T1, Phosphodiesterase 3; test: Inhibition of PDE3 by Biomol Green quantizyme assay system
Phosphodiesterase 3 [3] = target: T1, Phosphodiesterase 3; test: Inhibition of PDE3 at 1 nM by Biomol Green quantizyme assay system
Phosphodiesterase 3 [4] = target: T1, Phosphodiesterase 3; test: Inhibition of PDE3 at 10 uM by Biomol Green quantizyme assay system
Phosphodiesterase 3 [5] = target: T1, Phosphodiesterase 3; test: Inhibition of PDE3 at 100 nmol by Biomol Green quantizyme assay system

| SMILES | inhibition (Phosphodiesterase 3 [1]) | IC50 (Phosphodiesterase 3 [2]) | inhibition (Phosphodiesterase 3 [3]) | inhibition (Phosphodiesterase 3 [4]) | inhibition (Phosphodiesterase 3 [5]) |
| --- | --- | --- | --- | --- | --- |
| CCOC(=O)c1cc(Cc2ccc(Cl)cc2)c(=O)[nH]c1C | 43% |  |  |  |  |
| CCOC(=O)c1cc(Cc2ccc(C)cc2)c(=O)[nH]c1-c1ccccc1 | 42.2% |  |  |  |  |
| CCOC(=O)c1cc(Cc2ccc(C)cc2)c(=O)[nH]c1C | 80.1% | 172.5 µM | 0% | 35.4% |  |
| CCOC(=O)c1cc(Cc2ccc(Br)cc2)c(=O)[nH]c1C | 79.1% | 38.5 µM | 44.6% |  | 47.7% |
| COC(=O)c1cc(Cc2ccccc2)c(=O)[nH]c1C | 76.7% | 163.5 µM | 21.5% |  | 36.9% |
| CCCc1cc(C(=O)OCC)c(C)[nH]c1=O | 78.2% | 125.1 µM | 6.15% |  | 40% |
| CCOC(=O)c1cc(Cc2ccccc2)c(=O)[nH]c1C | 42.9% |  |  |  |  |
| N#Cc1cc(Cc2ccccc2)c(=O)[nH]c1-c1ccccc1 | 22.5% |  |  |  |  |
| CCOC(=O)c1cc(Cc2ccc(Br)cc2)c(=O)[nH]c1-c1ccccc1 | 74.1% | 8.47 µM |  | 55.4% | 21.5% |
| Cc1[nH]c(=O)c(Cc2ccc(Br)cc2)cc1C#N | 17.3% |  |  |  |  |
| Cc1ccc(Cc2cc(C#N)c(C)[nH]c2=O)cc1 | 85.9% | 1.68 µM | 34% | 72.4% |  |
| Cc1[nH]c(=O)c(Cc2ccccc2Cl)cc1C#N | 80.4% | 423.2 µM | 0% |  | 7.69% |
| CCOC(=O)c1cc(Cc2ccc(Cl)cc2Cl)c(=O)[nH]c1C | 78.3% | 172.13 µM |  | 35.4% | 30.8% |
| Cc1[nH]c(=O)c(C#N)cc1-c1ccncc1 | 90.6% |  |  | 91.7% |  |
| CCOC(=O)c1cc(Cc2ccccc2Cl)c(=O)[nH]c1C | 53.9% |  |  |  |  |
| CCOC(=O)c1cc(Cc2ccc(Cl)cc2)c(=O)[nH]c1-c1ccccc1 | 1.1% |  |  |  |  |
| COC(=O)c1cc(Cc2ccccc2Cl)c(=O)[nH]c1C | 85.8% | 2.66 µM |  | 87.7% | 36.9% |
| CCOC(=O)c1cc(Cc2cccc(Cl)c2)c(=O)[nH]c1C | 83.2% | 7.49 µM |  | 56.9% | 30.8% |
| Cc1[nH]c(=O)c(Cc2ccc(Cl)cc2Cl)cc1C#N | 79.5% | 280.7 µM | 0% | 23.1% |  |
| N#Cc1cc(Cc2ccc(Br)cc2)c(=O)[nH]c1-c1ccccc1 | 4.3% |  |  |  |  |
| CCOC(=O)c1cc(Cc2cccc(Cl)c2)c(=O)[nH]c1-c1ccccc1 | 80.9% | 312.4 µM | 0% | 20% |  |
| Cc1[nH]c(=O)c(Cc2ccc(Cl)cc2)cc1C#N | 41.2% |  |  |  |  |
| CCOC(=O)c1cc(Cc2ccccc2)c(=O)[nH]c1-c1ccccc1 | 83% | 7.3 µM | 33.9% | 55.4% |  |
| Cc1[nH]c(=O)c(Cc2ccccc2)cc1C#N | 84.6% | 128.3 µM | 35.4% |  | 38.5% |
